In PubChem BioAssay (NCI):
Several values for one entry are separate records, joined by “and”; a condition that tells them apart may be missing. Identical values can stand only once.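 In this assay, cells in 96-well plates receive the compound at five concentrations for 48 hours. Endpoints are linearly interpolated between the surrounding concentrations. GI50: concentration for 50% inhibition of growth. At the TGI there is no net growth.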

Legend:
Test in all cases: DTP human tumour cell line panel, 48 h
BT-549 breast = system: BT-549 breast
HS 578T breast = system: HS 578T breast
K-562 leukemia = system: K-562 leukemia
M14 melanoma = system: M14 melanoma
MCF7 breast = system: MCF7 breast
MDA-MB-231 breast = system: MDA-MB-231 breast
NCI-H226 lung = system: NCI-H226 lung
NCI-H460 lung = system: NCI-H460 lung
OVCAR-8 ovarian = system: OVCAR-8 ovarian
SF-539 CNS = system: SF-539 CNS

SMILES: O=C(Nc1ccc(Nc2ccncc2)cc1)c1ccc(Nc2ccnc3ccc([N+](=O)[O-])cc23)cc1
- GI50 (BT-549 breast): > 100 µM
- TGI (BT-549 breast): > 100 µM
- GI50 (HS 578T breast): > 100 µM
- TGI (HS 578T breast): > 100 µM
- GI50 (K-562 leukemia): > 100 µM
- TGI (K-562 leukemia): > 100 µM
- GI50 (M14 melanoma): > 100 µM
- TGI (M14 melanoma): > 100 µM
- GI50 (MCF7 breast): > 100 µM
- TGI (MCF7 breast): > 100 µM
- GI50 (MDA-MB-231 breast): 78.2 µM
- TGI (MDA-MB-231 breast): > 100 µM
- GI50 (NCI-H226 lung): > 100 µM
- TGI (NCI-H226 lung): > 100 µM
- GI50 (NCI-H460 lung): 6.27 µM
- TGI (NCI-H460 lung): > 100 µM
- GI50 (OVCAR-8 ovarian): > 100 µM
- TGI (OVCAR-8 ovarian): > 100 µM
- GI50 (SF-539 CNS): > 100 µM
- TGI (SF-539 CNS): > 100 µM

SMILES: CCN(CC)CCCC(C)Nc1cnc(C(=O)Nc2cc(F)cc3cccnc23)cn1 (stereo not given)
- GI50 (BT-549 breast): 11.1 µM and 1.59 µM
- TGI (BT-549 breast): 24 µM and 3 µM
- GI50 (HS 578T breast): 3.97 µM and 2.15 µM
- TGI (HS 578T breast): 21.1 µM and 6.62 µM
- GI50 (K-562 leukemia): 1.95 µM and 0.46 µM
- TGI (K-562 leukemia): 4.97 µM and > 32.5 µM
- GI50 (M14 melanoma): 2.04 µM and 0.994 µM
- TGI (M14 melanoma): 4.38 µM and 2.58 µM
- GI50 (MCF7 breast): 2.1 µM
- TGI (MCF7 breast): 6.91 µM
- GI50 (MDA-MB-231 breast): 3.42 µM and 0.568 µM
- TGI (MDA-MB-231 breast): 12.8 µM and 2.02 µM
- GI50 (NCI-H226 lung): 4.71 µM and 1.99 µM
- TGI (NCI-H226 lung): 18.5 µM and 4.13 µM
- GI50 (NCI-H460 lung): 4.64 µM and 2.06 µM
- TGI (NCI-H460 lung): 16.6 µM and 4.22 µM
- GI50 (OVCAR-8 ovarian): 7.03 µM and 1.29 µM
- TGI (OVCAR-8 ovarian): 20.2 µM and 5.77 µM
- GI50 (SF-539 CNS): 10.3 µM and 1.52 µM
- TGI (SF-539 CNS): 22.2 µM and 2.89 µM

SMILES: Fc1ccc(-c2nnc3sc(-c4cccc(Cl)c4)nn23)cc1Cl
- GI50 (BT-549 breast): > 100 µM
- TGI (BT-549 breast): > 100 µM
- GI50 (HS 578T breast): > 100 µM
- TGI (HS 578T breast): > 100 µM
- GI50 (K-562 leukemia): > 100 µM
- TGI (K-562 leukemia): > 100 µM
- GI50 (M14 melanoma): > 100 µM
- TGI (M14 melanoma): > 100 µM
- GI50 (MCF7 breast): > 100 µM
- TGI (MCF7 breast): > 100 µM
- GI50 (MDA-MB-231 breast): > 100 µM
- TGI (MDA-MB-231 breast): > 100 µM
- GI50 (NCI-H226 lung): > 100 µM
- TGI (NCI-H226 lung): > 100 µM
- GI50 (NCI-H460 lung): > 100 µM
- TGI (NCI-H460 lung): > 100 µM
- GI50 (OVCAR-8 ovarian): > 100 µM
- TGI (OVCAR-8 ovarian): > 100 µM
- GI50 (SF-539 CNS): > 100 µM
- TGI (SF-539 CNS): > 100 µM

SMILES: Cc1cc2c(C(N)=O)cccc2n1-c1nc2c(c(NCc3ccccc3)n1)CCCN2
- GI50 (BT-549 breast): 0.295 µM
- TGI (BT-549 breast): 0.695 µM
- GI50 (HS 578T breast): 0.262 µM
- TGI (HS 578T breast): 0.745 µM
- GI50 (K-562 leukemia): 0.0955 µM
- TGI (K-562 leukemia): 2.92 µM
- GI50 (M14 melanoma): 0.212 µM
- TGI (M14 melanoma): 0.432 µM
- GI50 (MCF7 breast): 0.0853 µM
- TGI (MCF7 breast): 0.747 µM
- GI50 (MDA-MB-231 breast): 0.186 µM
- TGI (MDA-MB-231 breast): 0.394 µM
- GI50 (NCI-H226 lung): 0.158 µM
- TGI (NCI-H226 lung): 0.332 µM
- GI50 (NCI-H460 lung): 0.232 µM
- TGI (NCI-H460 lung): 0.661 µM
- GI50 (OVCAR-8 ovarian): 0.182 µM
- TGI (OVCAR-8 ovarian): 0.431 µM
- GI50 (SF-539 CNS): 0.205 µM
- TGI (SF-539 CNS): 0.423 µM
